Source: patent publication US7019014B2, “Process for producing anticancer agent LL-D45042” (Wyeth Holdings Corporation, priority 2003, dated 2006)
In brackets after ≈: the same amount, converted by molar mass.

Key:
[1] = system: breast cancer line MDA435; assay: In vitro anticancer test: growth inhibition in MDA435 tumour cells; assay type: cell-based; details: no PTEN mutation, multi-dose testing
Description: (§1) The in vitro anticancer activity of LL-D45042 is determined by measuring the concentration of compound required to inhibit the growth of 50% of cells in two tumour cell lines. […] The elevated sensitivity is due to its genetic mutation in the PTEN tumor suppressor gene leading to constitutive activation of mTOR signaling pathway. […] LL-D45042 is also evaluated in a binding assay of FKBP12, a cellular receptor of rapamycin, to determine its binding affinity. The results are given in Table 2, with IC50's reported in units of ng/mL.
(§2) These determinations are made by multi-dose testing of LL-D45042 and direct comparisons to the reference samples.

FKBP12 = FKBP12 (Homo sapiens, UniProt P62942); assay: FKBP12 binding assay; details: FKBP12, a cellular receptor of rapamycin; read-out: Protein Binding, FKBP (IC50) (converted)
Description: as §1, §2

brain cancer line U87MG [2] = assay: In vitro anticancer test: growth inhibition in U87MG tumour cells; assay type: cell-based; details: Homo sapiens, U-87 MG, PTEN mutant, multi-dose testing
Description: as §1, §2

[3] = system: breast cancer line MDA435; details: previously established; no PTEN mutation; cited from earlier work
brain cancer line U87MG [4] = details: previously established; PTEN mutation, constitutive mTOR activation; cited from earlier work

Sequence of FKBP12 (P62942 whole entry, species assumed): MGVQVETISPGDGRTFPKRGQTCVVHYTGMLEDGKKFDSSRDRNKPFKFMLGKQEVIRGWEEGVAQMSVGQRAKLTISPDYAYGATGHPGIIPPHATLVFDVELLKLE

Row | SMILES | IC50 [1] [µg/mL] | IC50 (FKBP12) [nM] | IC50 (brain cancer line U87MG [2]) [µg/mL] | Sensitivity of MDA435 to growth inhibition [3] | Sensitivity of U87MG to growth inhibition (brain cancer line U87MG [4])
1 | CO[C@@H]1C[C@H](C[C@@H](C)[C@@H]2CC(=O)[C@H](C)/C=C(\C)[C@@H](O)[C@@H](O)C(=O)[C@H](C)C[C@H](C)/C=C/C=C/C=C(\C)[C@@H](O)C[C@@H]3CC[C@@H](C)[C@](O)(CC(=O)N4CCCC[C@H]4C(=O)O2)O3)CC[C@H]1O [LL-D45042] | > 1 | 401 | 0.035 (≈ 0.0401 µM) | – | –
2 | CO[C@H]1C[C@@H]2CC[C@@H](C)[C@@](O)(O2)C(=O)C(=O)N2CCCC[C@H]2C(=O)O[C@H]([C@H](C)C[C@@H]2CC[C@@H](O)[C@H](OC)C2)CC(=O)[C@H](C)/C=C(\C)[C@@H](O)[C@@H](OC)C(=O)[C@H](C)C[C@H](C)/C=C/C=C/C=C/1C [rapamycin, Rapamycin] | – | – | – | rapamycin-resistant phenotype | highly sensitive
